Assay results: patent US8247426B2, “Crystalline irinotecan hydrochloride and methods for its preparation” (Antibioticos S.p.A., priority 2008, dated 2012)
Structures can show the parent of a compound that is named as a salt.

Assay: solubility in water at room temperature
Assay type: physicochemical

For `CCc1c2c(nc3ccc(OC(=O)N4CCC(N5CCCCC5)CC4)cc13)-c1cc3c(c(=O)n1C2)COC(=O)[C@]3(O)CC` [form H, irinotecan hydrochloride], the solubility was greater than 20 mg/mL.
